These results are taken from ChEMBL document CHEMBL1201862, “PubChem BioAssay data set” (2004).

What all share (assay): NCI anticancer screen, dose series, 48 h
Experiment [1] has as its system CCRF-CEM.
The subject of experiment [2] is OVCAR-5.
For experiment [3], the system named is U-251.
Experiment [4] deals with UACC-62.
Experiment [5] deals with COLO 205.
The subject of experiment [6] is OVCAR-4.
The test system of experiment [7] is HL-60.
In experiment [8] the test system is NCI-H522.
Experiment [9] deals with HT-29.
In experiment [10] the test system is RPMI-8226.
The test system of experiment [11] is SNB-19.
For experiment [12], the system named is SK-MEL-2.
The test system of experiment [13] is SK-MEL-5.
The test system of experiment [14] is NCI-H23.
Experiment [15] relates to HCT-15.
The subject of experiment [16] is MOLT-4.
The test system of experiment [17] is MDA-N.
Experiment [18] deals with PC-3.
The subject of experiment [19] is MCF7.

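Cells were grown in 96-well plates and exposed to each compound for 48 hours at five concentrations; endpoints were interpolated linearly between bracketing concentrations, or set to the highest concentration if not reached. Abbreviation: GI50, concentration required for 50% inhibition of growth.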 Active and inactive are the calls of the source. No stated cut-off is given here; in the data, active = GI50 up to about 1.1 µM and inactive = higher.

Turning to `Cc1ccccc1C(=O)Oc1ccc(O)cc1`, the GI50 in [1], in experiment [2], in experiment [3], in [4], in experiment [5] and in experiment [6] was > 100 µM (inactive) in each case. The GI50 in experiment [7], in [8], in [9], in experiment [10], in experiment [11] and in experiment [12] was > 100 µM (inactive) throughout. The GI50 in [13] was > 100 µM (inactive); in experiment [14] it was > 100 µM (inactive); in [15], above 100 µM; in [16], > 100 µM (inactive).
As to `CCOC(=O)C(=O)Nc1cccc(Cl)c1C`, the GI50 in experiment [1], in [2], in experiment [3], in experiment [4], in experiment [5] and in [6] was > 100 µM (inactive) throughout. Besides, the GI50 in experiment [7], in experiment [8], in [9], in [10], in experiment [11] and in experiment [12] was > 100 µM (inactive) throughout. The GI50 in experiment [13] was > 100 µM (inactive); in experiment [14] it was > 100 µM (inactive); in [15], above 100 µM; in experiment [16] it was > 100 µM (inactive).
Take `CCOC(=O)C1C(C)C2(C#N)C(=N)OC1(C)C2(C#N)C#N` (centres undefined): the GI50 in experiment [2] was > 100 µM (inactive); in experiment [3] it was 69.2 µM (inactive); in experiment [17], 46.1 µM (inactive); in experiment [4], 46 µM (inactive); in experiment [5], > 100 µM (inactive); in [18], > 100 µM (inactive). The GI50 is 21.8 µM (inactive) in [7]; 55.2 µM (inactive) in [19]; 71.9 µM (inactive) in experiment [8]; 58.9 µM (inactive) in experiment [9]; 18.5 µM (inactive) in experiment [10]; 79.3 µM (inactive) in experiment [11]. The GI50 in experiment [12] was 58.2 µM (inactive); in [13] it was 41.4 µM (inactive); in experiment [14] it was 60 µM (inactive); in experiment [15] it was 12.5 µM.
In the case of `COc1cc(-c2cc(OC)c(OC)c3ccc(Br)cc23)c2cc(Br)ccc2c1OC`, the GI50 in [2] is 15.9 µM (inactive); in [3] it was 20.5 µM (inactive); in experiment [17], 22.5 µM (inactive); in experiment [4] it was 21.9 µM (inactive); in experiment [5], 39.5 µM (inactive); in experiment [6], 15 µM (inactive). The GI50 in experiment [18] was 20.6 µM (inactive); in [19], 47.2 µM (inactive); in experiment [8], 42.9 µM (inactive); in experiment [9], 19.2 µM (inactive); in [10] it was 21.4 µM (inactive); in experiment [11] it was 39.5 µM (inactive). For the same compound, the GI50 in experiment [12] is 25.4 µM (inactive); in [13], 32.3 µM (inactive); in [14], 22.4 µM (inactive); in experiment [15], 63.2 µM; in [16], 45.7 µM (inactive).
For `CN(C)CCCOCCn1c2c(c3ccccc31)CCCC2`, the GI50 in experiment [1] is 12.9 µM (inactive); in experiment [2], 16.9 µM (inactive); in experiment [3] it was 17.9 µM (inactive); in experiment [17], 14.9 µM (inactive); in experiment [4], 16.7 µM (inactive); in [5], 16.6 µM (inactive). Further, the GI50 is 15.2 µM (inactive) in experiment [6]; 12.9 µM (inactive) in experiment [18]; 5.19 µM (inactive) in experiment [7]; 16.4 µM (inactive) in experiment [19]; 15 µM (inactive) in [9]; 15.9 µM (inactive) in experiment [10]. Moreover, the GI50 in experiment [12] was 13.4 µM (inactive); in experiment [13], 12.7 µM (inactive); in experiment [14], 15.1 µM (inactive); in [15], 15 µM; in experiment [16], 13.7 µM (inactive).
As for `CCN(CC)CCNC(=O)c1ccccc1NC(=O)C(=O)Nc1ccccc1C(=O)NCCN(CC)CC`, the GI50 in experiment [1] was 30.3 µM (inactive); in experiment [2], 94 µM (inactive); in [3] it was 44.6 µM (inactive); in experiment [4], > 100 µM (inactive); in experiment [5], 14.1 µM (inactive); in experiment [6], 64.1 µM (inactive). In addition, the GI50 was 15.2 µM (inactive) in [7]; 39.2 µM (inactive) in [8]; 34.6 µM (inactive) in [9]; > 100 µM (inactive) in experiment [10]; > 100 µM (inactive) in experiment [11]; 43 µM (inactive) in [12]. The GI50 in experiment [13] is 18.8 µM (inactive); in experiment [14], > 100 µM (inactive); in experiment [15] it was 49.9 µM; in experiment [16], 30.2 µM (inactive).
With `O=C(Nc1ccc(C(F)(F)F)cc1[N+](=O)[O-])C(=O)C(C(=O)c1ccc2ccccc2c1)C1OC(=O)c2ccccc21` (centres undefined), the GI50 was 3.7 µM (inactive) in [1]; 13.3 µM (inactive) in experiment [2]; 4.41 µM (inactive) in experiment [3]; 5.6 µM (inactive) in [4]; 8.75 µM (inactive) in experiment [5]; 20.6 µM (inactive) in [6]. Further, the GI50 is 8.28 µM (inactive) in [7]; 7.11 µM (inactive) in experiment [8]; 9.08 µM (inactive) in experiment [9]; 4.11 µM (inactive) in experiment [10]; 8.51 µM (inactive) in experiment [11]; 13 µM (inactive) in experiment [12]. Further, the GI50 is 6.76 µM (inactive) in experiment [13], 5.31 µM (inactive) in experiment [14], 8.81 µM in [15] and 2.26 µM (inactive) in experiment [16].
As for `COc1cc2ccc3c4cc(OC)c(OC)cc4c[n+](C)c3c2cc1O`, the GI50 in experiment [1] is > 100 µM (inactive); in experiment [2] it was > 100 µM (inactive); in experiment [3] it was 6.37 µM (inactive); in experiment [4] it was > 100 µM (inactive); in experiment [5], > 90.8 µM (inactive); in experiment [6] it was > 81.8 µM (inactive). Further, the GI50 in experiment [7] is > 100 µM (inactive); in [8], 8.97 µM (inactive); in experiment [9], > 100 µM (inactive); in [10], > 100 µM (inactive); in experiment [11] it was 3.91 µM (inactive); in experiment [12], > 100 µM (inactive). In addition, the GI50 in experiment [13] was > 100 µM (inactive); in experiment [14], 37.1 µM (inactive); in experiment [15], above 100 µM; in experiment [16] it was > 100 µM (inactive).
On to `CCOC(=O)C(C(=O)c1ccccc1)=C1NCCN1`, for which the GI50 in [1], in experiment [2], in experiment [3], in experiment [4], in experiment [5] and in experiment [6] was > 100 µM (inactive) throughout. Besides, the GI50 in experiment [7], in [8], in experiment [9], in experiment [10], in experiment [11] and in experiment [12] was > 100 µM (inactive) throughout. Besides, the GI50 was > 100 µM (inactive) in experiment [13], > 100 µM (inactive) in experiment [14], above 100 µM in experiment [15] and > 100 µM (inactive) in experiment [16].
Take `COS(=O)(=O)OCCC(NC(=O)OCc1ccccc1)C(=O)OCc1ccccc1` (centres undefined): the GI50 in experiment [1], in experiment [2], in experiment [3], in experiment [4], in [5] and in experiment [6] was > 100 µM (inactive) each time. In addition, the GI50 in experiment [7] is 53.3 µM (inactive); in experiment [8] it was > 100 µM (inactive); in experiment [9] it was 59.2 µM (inactive); in experiment [10], > 100 µM (inactive); in experiment [11], > 100 µM (inactive); in [12] it was > 100 µM (inactive). Moreover, the GI50 in experiment [13] is > 100 µM (inactive); in [14] it was > 100 µM (inactive); in [15], above 100 µM; in experiment [16], > 100 µM (inactive).
As for `FC(F)(F)c1ccc(/C=N/C23CC4CC(CC(C4)C2)C3)cc1`, the GI50 in experiment [1], in experiment [2], in [3], in [4], in experiment [5] and in [6] was > 100 µM (inactive) throughout. Also, the GI50 in experiment [7], in experiment [8], in experiment [9], in experiment [10], in experiment [11] and in experiment [12] was > 100 µM (inactive) throughout. Further, the GI50 was > 100 µM (inactive) in [13], > 100 µM (inactive) in [14], above 100 µM in experiment [15] and > 100 µM (inactive) in experiment [16].
With `COc1ccc(S(=O)(=O)N(CC(=O)O)c2ccccc2)cc1`, the GI50 in experiment [1], in [2], in experiment [3], in experiment [4], in experiment [5] and in [6] was > 100 µM (inactive) each time. The GI50 in experiment [7], in experiment [8], in experiment [9], in experiment [10], in [11] and in [12] was > 100 µM (inactive) throughout. The GI50 in experiment [13] was > 100 µM (inactive); in experiment [14], > 100 µM (inactive); in [15] it was above 100 µM; in [16], > 100 µM (inactive).
